pIC50: −log10 of the molar value.
How the values were obtained:
[1] = molecular target: T1, CK2 (Homo sapiens, UniProt P68400); assay: Kinase profiling at 10 μM (Eurofins); type: biochemical; settings: read-out: Inhibitory activity
T1 construct: purchased Eurofins Pharma Discovery (KinaseProfiler); IC50 values by Reaction Biology Corp

[2] = molecular target: T2, c-KIT (Homo sapiens, UniProt P10721); assay: In vitro kinase assay, IC50 (Reaction Biology Corp.); type: biochemical
T2 construct: purchased Eurofins Pharma Discovery (KinaseProfiler); IC50 values by Reaction Biology Corp

[3] = molecular target: T3, MAPK2 (Homo sapiens, UniProt P28482); assay: Kinase profiling at 10 μM (Eurofins); type: biochemical; settings: read-out: Inhibitory activity
T3 construct: purchased Eurofins Pharma Discovery (KinaseProfiler); IC50 values by Reaction Biology Corp
T3 sequence (P28482 whole entry): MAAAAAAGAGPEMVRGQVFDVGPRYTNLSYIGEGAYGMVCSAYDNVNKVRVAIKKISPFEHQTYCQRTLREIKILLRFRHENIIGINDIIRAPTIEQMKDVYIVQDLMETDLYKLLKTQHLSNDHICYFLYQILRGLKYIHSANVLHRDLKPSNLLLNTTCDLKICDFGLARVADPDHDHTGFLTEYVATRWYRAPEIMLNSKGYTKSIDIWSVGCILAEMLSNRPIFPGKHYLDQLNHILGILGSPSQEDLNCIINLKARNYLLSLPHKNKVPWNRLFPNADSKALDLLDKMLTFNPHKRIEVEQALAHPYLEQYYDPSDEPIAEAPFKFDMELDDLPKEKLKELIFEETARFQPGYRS

[4] = molecular target: T4, ERBB4 (Homo sapiens, UniProt Q15303); assay: Kinase profiling at 10 μM (Eurofins); type: biochemical; settings: read-out: Inhibitory activity
T4 construct: purchased Eurofins Pharma Discovery (KinaseProfiler); IC50 values by Reaction Biology Corp

[5] = molecular target: T5, ALK (Homo sapiens, UniProt Q9UM73); assay: Kinase profiling at 10 μM (Eurofins); type: biochemical; settings: read-out: Inhibitory activity
T5 construct: purchased Eurofins Pharma Discovery (KinaseProfiler); IC50 values by Reaction Biology Corp
T5 sequence (Q9UM73 19-1620): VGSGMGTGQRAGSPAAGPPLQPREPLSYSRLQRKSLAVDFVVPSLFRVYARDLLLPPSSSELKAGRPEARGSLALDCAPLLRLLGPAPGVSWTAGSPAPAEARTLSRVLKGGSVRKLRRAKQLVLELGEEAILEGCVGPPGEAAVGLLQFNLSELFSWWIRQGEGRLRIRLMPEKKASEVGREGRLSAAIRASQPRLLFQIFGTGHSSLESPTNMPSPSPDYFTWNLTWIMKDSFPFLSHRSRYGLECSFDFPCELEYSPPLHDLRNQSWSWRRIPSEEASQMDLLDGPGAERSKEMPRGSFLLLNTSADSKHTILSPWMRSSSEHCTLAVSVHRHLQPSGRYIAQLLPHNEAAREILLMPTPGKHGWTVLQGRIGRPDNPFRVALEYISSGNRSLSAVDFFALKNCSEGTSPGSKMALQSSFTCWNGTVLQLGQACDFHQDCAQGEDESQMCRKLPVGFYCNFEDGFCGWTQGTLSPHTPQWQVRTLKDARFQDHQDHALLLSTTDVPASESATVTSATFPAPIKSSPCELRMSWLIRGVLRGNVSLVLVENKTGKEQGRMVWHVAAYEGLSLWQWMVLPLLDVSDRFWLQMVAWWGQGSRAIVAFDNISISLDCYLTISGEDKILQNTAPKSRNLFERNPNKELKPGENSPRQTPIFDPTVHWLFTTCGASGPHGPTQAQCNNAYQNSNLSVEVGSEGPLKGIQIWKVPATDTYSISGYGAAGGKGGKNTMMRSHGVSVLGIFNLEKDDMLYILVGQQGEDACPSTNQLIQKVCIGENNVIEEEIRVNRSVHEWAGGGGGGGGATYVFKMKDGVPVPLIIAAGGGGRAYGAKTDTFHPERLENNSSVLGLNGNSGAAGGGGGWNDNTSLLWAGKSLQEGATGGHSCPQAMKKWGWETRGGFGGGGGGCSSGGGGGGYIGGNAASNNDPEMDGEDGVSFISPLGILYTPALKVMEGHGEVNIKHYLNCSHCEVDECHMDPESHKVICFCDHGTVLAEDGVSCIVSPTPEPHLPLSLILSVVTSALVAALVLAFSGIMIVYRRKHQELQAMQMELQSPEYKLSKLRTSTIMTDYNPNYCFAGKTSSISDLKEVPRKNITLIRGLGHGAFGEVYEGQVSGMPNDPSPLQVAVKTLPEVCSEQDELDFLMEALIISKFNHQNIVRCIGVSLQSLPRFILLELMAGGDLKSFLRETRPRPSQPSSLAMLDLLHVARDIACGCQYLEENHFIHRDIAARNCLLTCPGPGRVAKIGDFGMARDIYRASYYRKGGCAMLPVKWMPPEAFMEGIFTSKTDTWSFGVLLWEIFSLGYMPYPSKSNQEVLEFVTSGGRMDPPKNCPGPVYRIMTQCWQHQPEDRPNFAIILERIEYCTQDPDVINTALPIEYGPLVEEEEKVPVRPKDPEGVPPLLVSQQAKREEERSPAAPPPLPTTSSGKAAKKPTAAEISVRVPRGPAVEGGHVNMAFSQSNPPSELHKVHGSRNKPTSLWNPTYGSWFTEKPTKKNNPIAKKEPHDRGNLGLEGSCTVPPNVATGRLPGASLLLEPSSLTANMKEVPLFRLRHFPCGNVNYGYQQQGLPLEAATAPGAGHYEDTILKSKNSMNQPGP

[6] = molecular target: T6, FAK (Homo sapiens, UniProt Q05397); assay: Kinase profiling at 10 μM (Eurofins); type: biochemical; settings: read-out: Inhibitory activity
T6 construct: purchased Eurofins Pharma Discovery (KinaseProfiler); IC50 values by Reaction Biology Corp

[7] = molecular target: T7, Met (Homo sapiens, UniProt P08581); assay: Kinase profiling at 10 μM (Eurofins); type: biochemical; settings: read-out: Inhibitory activity
T7 construct: purchased Eurofins Pharma Discovery (KinaseProfiler); IC50 values by Reaction Biology Corp

[8] = molecular target: T8, cSRC (Homo sapiens, UniProt P12931); assay: Kinase profiling at 10 μM (Eurofins); type: biochemical; settings: read-out: Inhibitory activity
T8 construct: purchased Eurofins Pharma Discovery (KinaseProfiler); IC50 values by Reaction Biology Corp
T8 sequence (P12931 whole entry): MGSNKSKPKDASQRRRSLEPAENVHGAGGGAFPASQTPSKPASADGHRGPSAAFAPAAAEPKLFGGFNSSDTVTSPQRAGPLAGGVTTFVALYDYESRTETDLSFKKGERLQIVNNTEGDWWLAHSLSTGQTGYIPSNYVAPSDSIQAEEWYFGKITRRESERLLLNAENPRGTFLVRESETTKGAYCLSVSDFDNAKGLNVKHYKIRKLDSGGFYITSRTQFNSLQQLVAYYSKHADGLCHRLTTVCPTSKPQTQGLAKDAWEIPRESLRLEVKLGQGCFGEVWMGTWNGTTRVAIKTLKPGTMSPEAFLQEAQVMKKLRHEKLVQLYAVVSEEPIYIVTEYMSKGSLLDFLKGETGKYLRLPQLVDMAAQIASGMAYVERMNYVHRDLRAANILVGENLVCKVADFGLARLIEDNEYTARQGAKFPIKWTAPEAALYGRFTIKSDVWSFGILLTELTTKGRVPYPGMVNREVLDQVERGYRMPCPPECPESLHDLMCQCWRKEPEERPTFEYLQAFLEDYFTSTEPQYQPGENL

[9] = molecular target: T9, c-KIT (D816H) (Homo sapiens, UniProt P10721, D816H); assay: Kinase profiling at 10 μM (Eurofins); type: biochemical; settings: read-out: Inhibitory activity
T9 construct: purchased Eurofins Pharma Discovery (KinaseProfiler); IC50 values by Reaction Biology Corp

[10] = system: H1299 cells; assay: γ-H2AX immunofluorescence foci assay; type: cell-based, human; settings: 5 μM
Method: (§1) For γ-H2AX and 4′,6-diamidino-2-phenylindole (DAPI) staining, cells were fixed in 4% paraformaldehyde for 15 min at room temperature and permeabilized with 0.1% Triton X-100 in PBS for 20 min. The cells were then incubated with 1:200 dilution of anti-phosho-H2AX (Ser139) antibody overnight at 4 °C. AlexaFluor 594-conjugated anti-mouse IgG antibody (Abcam, Cambridge, UK) was used at 1:400 dilution for 1 h at room temperature. The slides were mounted in mounting medium (DAKO, Santa Clara, CA, USA) with DAPI (ThermoFisher Scientific) before imaging. Images were acquired using an LSM880 laser scanning microscope (ZEISS, Jena, Germany). Fluorescent images were captured using the appropriate filters. Images were analyzed using the Image J and ZEN software.

[11] = system: A549 cells; assay: γ-H2AX immunofluorescence foci assay; type: cell-based, human; settings: 5 μM
Method: as §1

[12] = molecular target: T10, EPHB4 (Homo sapiens, UniProt P54760); assay: Kinase profiling at 10 μM (Eurofins); type: biochemical; settings: read-out: Inhibitory activity
T10 construct: purchased Eurofins Pharma Discovery (KinaseProfiler); IC50 values by Reaction Biology Corp

[13] = molecular target: T11, PI3 Kinase (p110a/p85a) (Homo sapiens, UniProt P42336); assay: Kinase profiling at 10 μM (Eurofins); type: biochemical; settings: read-out: Inhibitory activity
T11 construct: purchased Eurofins Pharma Discovery (KinaseProfiler); IC50 values by Reaction Biology Corp

[14] = molecular target: T12, PDGFRα (Homo sapiens, UniProt P16234); assay: Kinase profiling at 10 μM (Eurofins); type: biochemical; settings: read-out: Inhibitory activity
T12 construct: purchased Eurofins Pharma Discovery (KinaseProfiler); IC50 values by Reaction Biology Corp

[15] = molecular target: T13, EGFR(T790M,L858R) (Homo sapiens, UniProt P00533, L858R/T790M); assay: Kinase profiling at 10 μM (Eurofins); type: biochemical; settings: read-out: Inhibitory activity
T13 construct: purchased Eurofins Pharma Discovery (KinaseProfiler); IC50 values by Reaction Biology Corp
T13 sequence (P00533 25-1210 T790M/L858R): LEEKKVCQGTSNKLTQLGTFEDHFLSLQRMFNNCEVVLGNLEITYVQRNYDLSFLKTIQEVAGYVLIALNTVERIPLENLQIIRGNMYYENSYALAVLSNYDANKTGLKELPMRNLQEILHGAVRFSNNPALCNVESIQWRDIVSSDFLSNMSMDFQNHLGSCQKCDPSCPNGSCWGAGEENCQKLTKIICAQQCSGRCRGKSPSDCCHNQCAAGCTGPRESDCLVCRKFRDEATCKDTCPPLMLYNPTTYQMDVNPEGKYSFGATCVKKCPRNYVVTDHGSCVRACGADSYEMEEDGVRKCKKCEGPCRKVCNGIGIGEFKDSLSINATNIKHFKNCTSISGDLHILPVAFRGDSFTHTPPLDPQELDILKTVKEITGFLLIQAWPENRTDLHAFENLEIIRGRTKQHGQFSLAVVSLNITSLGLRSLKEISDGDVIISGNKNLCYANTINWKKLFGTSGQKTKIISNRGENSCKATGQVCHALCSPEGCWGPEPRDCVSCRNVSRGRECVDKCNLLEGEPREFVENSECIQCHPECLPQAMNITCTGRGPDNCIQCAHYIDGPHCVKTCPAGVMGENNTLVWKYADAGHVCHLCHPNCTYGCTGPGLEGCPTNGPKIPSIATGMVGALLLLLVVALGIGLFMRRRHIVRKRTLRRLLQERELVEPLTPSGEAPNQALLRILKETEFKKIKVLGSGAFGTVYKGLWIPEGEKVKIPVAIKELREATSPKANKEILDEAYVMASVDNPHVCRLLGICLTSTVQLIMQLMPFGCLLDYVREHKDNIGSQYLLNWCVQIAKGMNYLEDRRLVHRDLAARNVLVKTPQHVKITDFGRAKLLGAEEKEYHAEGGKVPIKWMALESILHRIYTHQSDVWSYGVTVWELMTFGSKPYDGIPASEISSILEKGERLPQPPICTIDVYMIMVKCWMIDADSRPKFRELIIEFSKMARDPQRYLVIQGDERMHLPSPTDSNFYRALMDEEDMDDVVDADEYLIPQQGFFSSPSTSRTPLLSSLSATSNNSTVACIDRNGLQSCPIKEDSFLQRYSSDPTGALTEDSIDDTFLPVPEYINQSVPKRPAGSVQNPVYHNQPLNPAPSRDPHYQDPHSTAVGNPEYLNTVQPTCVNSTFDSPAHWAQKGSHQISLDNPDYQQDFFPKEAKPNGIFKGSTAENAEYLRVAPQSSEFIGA

[16] = molecular target: T14, B-RAF (Homo sapiens, UniProt P15056); assay: Kinase profiling at 10 μM (Eurofins); type: biochemical; settings: read-out: Inhibitory activity
T14 construct: purchased Eurofins Pharma Discovery (KinaseProfiler); IC50 values by Reaction Biology Corp

[17] = molecular target: T15, HIPK2 (Homo sapiens, UniProt Q9H2X6); assay: Kinase profiling at 10 μM (Eurofins); type: biochemical; settings: read-out: Inhibitory activity
T15 construct: purchased Eurofins Pharma Discovery (KinaseProfiler); IC50 values by Reaction Biology Corp
T15 sequence (Q9H2X6 whole entry): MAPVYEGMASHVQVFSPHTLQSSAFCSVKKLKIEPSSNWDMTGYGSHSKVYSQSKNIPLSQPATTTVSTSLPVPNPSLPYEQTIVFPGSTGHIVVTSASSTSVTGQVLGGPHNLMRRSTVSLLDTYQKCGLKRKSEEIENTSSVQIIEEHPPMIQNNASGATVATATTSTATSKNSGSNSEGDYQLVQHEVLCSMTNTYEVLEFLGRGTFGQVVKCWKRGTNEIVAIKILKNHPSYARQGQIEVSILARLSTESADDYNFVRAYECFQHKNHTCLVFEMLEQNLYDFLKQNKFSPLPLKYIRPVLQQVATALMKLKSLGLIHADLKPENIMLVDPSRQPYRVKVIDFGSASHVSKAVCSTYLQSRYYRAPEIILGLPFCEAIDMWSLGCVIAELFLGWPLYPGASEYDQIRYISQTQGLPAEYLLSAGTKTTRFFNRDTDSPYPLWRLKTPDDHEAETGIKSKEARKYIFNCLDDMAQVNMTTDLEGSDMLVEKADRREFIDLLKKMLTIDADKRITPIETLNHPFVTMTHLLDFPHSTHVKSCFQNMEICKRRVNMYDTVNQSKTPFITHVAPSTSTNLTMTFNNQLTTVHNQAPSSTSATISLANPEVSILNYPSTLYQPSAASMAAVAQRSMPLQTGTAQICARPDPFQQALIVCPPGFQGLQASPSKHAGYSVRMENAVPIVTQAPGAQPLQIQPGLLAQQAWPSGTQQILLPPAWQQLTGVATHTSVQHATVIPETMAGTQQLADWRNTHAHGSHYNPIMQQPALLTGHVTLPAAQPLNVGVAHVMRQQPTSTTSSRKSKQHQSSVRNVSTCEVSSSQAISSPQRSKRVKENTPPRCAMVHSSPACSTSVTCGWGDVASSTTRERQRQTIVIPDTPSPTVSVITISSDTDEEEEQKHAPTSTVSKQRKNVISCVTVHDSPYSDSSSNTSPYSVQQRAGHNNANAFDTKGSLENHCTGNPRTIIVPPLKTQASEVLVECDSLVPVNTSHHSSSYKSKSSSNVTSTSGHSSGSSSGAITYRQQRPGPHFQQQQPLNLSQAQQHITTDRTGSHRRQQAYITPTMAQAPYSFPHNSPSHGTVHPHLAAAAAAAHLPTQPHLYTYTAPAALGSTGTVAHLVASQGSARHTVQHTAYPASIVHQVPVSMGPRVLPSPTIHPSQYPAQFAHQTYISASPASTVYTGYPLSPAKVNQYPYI

[18] = system: H1299 cells; assay: Immunoblot of cell cycle checkpoint proteins; type: cell-based, human; settings: 5 μM, 6 h or 24 h
Method: (§2) Cell lysates were prepared by extracting proteins with TNN buffer (40 mM Tris-Cl pH 8.0, 0.2% NP-40, 120 mM NaCl) or radioimmunoprecipitation assay (RIPA) lysis buffer (Millipore, Billerica MA, USA) supplemented with a protease inhibitor cocktail (Thermo Fisher Scientific, Rockford, IL, USA). Equal amounts of proteins were separated using SDS-PAGE on 8–13% gels, and transferred to nitrocellulose membranes (Bio-Rad, Hercules, CA, USA). The membranes were blocked with 5% skim milk in Tris-buffered saline-Tween 20 (TBST) (150 mM NaCl, 10 mM Tris, 0.2% Tween20), followed by overnight incubation with primary antibodies at 4 °C. The blots were developed using peroxidase-conjugated secondary antibody and the immunoreactive proteins were visualized using enhanced chemiluminescence (ECL) reagents, according to the manufacturer’s recommendations (Amersham, GE Healthcare, Buckingamshire, UK). The protein bands were visualized using a digital imaging system (ImageQuant LAS 4000 mini; GE Healthcare, UK). The protein levels were analyzed using Image J software (National Institutes of Health, Bethesda, MD, USA). Experiments were repeated at least thrice.

[19] = system: A549 cells; assay: Immunoblot of cell cycle checkpoint proteins; type: cell-based, human; settings: 5 μM
Method: as §2

[20] = molecular target: T16, WEE1 (Homo sapiens, UniProt P30291); assay: Kinase profiling at 10 μM (Eurofins); type: biochemical; settings: read-out: Inhibitory activity
T16 construct: purchased Eurofins Pharma Discovery (KinaseProfiler); IC50 values by Reaction Biology Corp

[21] = system: MV4-11 cells; assay: Immunoblot of phospho-STAT5; type: cell-based, human; settings: 1 h
Method: as §2
(§3) Supplementary Figure 3. AIU2001 inhibited downstream effector STAT5 of FLT3 signaling in
(§4) FLT3(ITD)-AML cells. […]
(§5) AIU2001 for 1h. Cell lysates were prepared and analyzed using immunoblotting for detecting […]

[22] = system: Molm-13 cells; assay: Immunoblot of phospho-STAT5; type: cell-based, human; settings: 1 h
Method: as §2, §3, §4, §5

[23] = molecular target: T17, IGF-1R (Homo sapiens, UniProt P08069); assay: Kinase profiling at 10 μM (Eurofins); type: biochemical; settings: read-out: Inhibitory activity
T17 construct: purchased Eurofins Pharma Discovery (KinaseProfiler); IC50 values by Reaction Biology Corp

[24] = system: H1299 cells; assay: Immunoblot of cleaved caspase-3 and PARP-1; type: cell-based, human; settings: 48 h
Method: as §2

[25] = system: A549 cells; assay: Immunoblot of cleaved caspase-3 and PARP-1; type: cell-based, human; settings: 48 h
Method: as §2

[26] = molecular target: T18, FGFR1 (Homo sapiens, UniProt P11362); assay: Kinase profiling at 10 μM (Eurofins); type: biochemical; settings: read-out: Inhibitory activity
T18 construct: purchased Eurofins Pharma Discovery (KinaseProfiler); IC50 values by Reaction Biology Corp

[27] = molecular target: T19, FLT4 (Homo sapiens, UniProt P35916); assay: Kinase profiling at 10 μM (Eurofins); type: biochemical; settings: read-out: Inhibitory activity
T19 construct: purchased Eurofins Pharma Discovery (KinaseProfiler); IC50 values by Reaction Biology Corp

[28] = molecular target: T20, IKKα (Homo sapiens, UniProt O15111); assay: Kinase profiling at 10 μM (Eurofins); type: biochemical; settings: read-out: Inhibitory activity
T20 construct: purchased Eurofins Pharma Discovery (KinaseProfiler); IC50 values by Reaction Biology Corp

[29] = molecular target: T21, CHK1 (Homo sapiens, UniProt O14757); assay: Kinase profiling at 10 μM (Eurofins); type: biochemical; settings: read-out: Inhibitory activity
T21 construct: purchased Eurofins Pharma Discovery (KinaseProfiler); IC50 values by Reaction Biology Corp

inhibition at 10 µM [1]: 10%
pIC50 [2]: 6.65
inhibition at 10 µM [3]: 19%
inhibition at 10 µM [4]: 1%
inhibition at 10 µM [5]: 0%
inhibition at 10 µM [6]: 16%
inhibition at 10 µM [7]: 1%
inhibition at 10 µM [8]: 22%
inhibition at 10 µM [9]: 48%
inhibition at 10 µM [12]: 10%
inhibition at 10 µM [13]: 7%
inhibition at 10 µM [14]: 48%
inhibition at 10 µM [15]: 4%
inhibition at 10 µM [16]: 0%
inhibition at 10 µM [17]: 0%
inhibition at 10 µM [20]: 8%
inhibition at 10 µM [23]: 0%
inhibition at 10 µM [26]: 1%
inhibition at 10 µM [27]: ≥ 75%
inhibition at 10 µM [28]: 7%
inhibition at 10 µM [29]: 0%
Structure (SMILES): Brc1ccc(-c2cnc(Nc3cccc4ccccc34)o2)cc1 [AIU2001, 5-(4-bromophenyl)-N-(naphthalen-1-yl) oxazol-2-amine]
γ-H2AX foci [10]: high levels of γ-H2AX foci
γ-H2AX foci [11]: high levels of γ-H2AX foci
CDC25C level [18]: decrease
Cyclin B1 level [18]: significant increase
Phosphorylated histone H3 level [18]: significant increase
Phosphorylation of CHK1 at Ser345 [18]: increased the phosphorylation
Phosphorylation of CHK2 at Thr68 [18]: increased the phosphorylation
Expression of p21 ([19]; A549 (p53 wild-type)): increased in A549 cells
Expression of phosphorylated p53 ([19]; A549 (p53 wild-type)): increased in A549 cells
CDC25C level ([19]; A549, 6 h or 24 h): decrease
Cyclin B1 level ([19]; A549, 6 h or 24 h): significant increase
Phosphorylated histone H3 level ([19]; A549, 6 h or 24 h): significant increase
Phosphorylation of CHK1 at Ser345 ([19]; A549, 6 h or 24 h): increased the phosphorylation
Phosphorylation of CHK2 at Thr68 ([19]; A549, 6 h or 24 h): increased the phosphorylation
Phosphorylated STAT5 [21]: dose-dependently inhibited phosphorylated STAT5
Phosphorylated STAT5 [22]: dose-dependently inhibited phosphorylated STAT5
Cleavage of caspase-3 and PARP-1 [24]: increased cleavage
Cleavage of caspase-3 and PARP-1 [25]: increased cleavage

From paper PMC6801739, “Antitumor Activity of a Novel Tyrosine Kinase Inhibitor AIU2001 Due to Abrogation of the DNA Damage Repair in Non-Small Cell Lung Cancer Cells” (International Journal of Molecular Sciences, 2019)
